In PubChem BioAssay (NCI):
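GI50 is the concentration that inhibits growth by half. TGI denotes the concentration required for complete inhibition of growth.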

Key:
Assay in all cases: DTP human tumour cell line panel, 384-well format
[1] = test system: HCC-2998 colon
[2] = test system: BT-549 breast
[3] = test system: SNB-19 CNS
[4] = test system: SR leukemia
[5] = test system: MALME-3M melanoma
[6] = test system: OVCAR-8 ovarian
[7] = test system: NCI-H23 lung
[8] = test system: EKVX NSCLC
[9] = test system: MDA-MB-231 breast
[10] = test system: OVCAR-4 ovarian
[11] = test system: UACC-62 melanoma
[12] = test system: HOP-62 NSCLC
[13] = test system: RXF 393 renal
[14] = test system: DU-145 prostate
[15] = test system: NCI/ADR-RES ovarian
[16] = test system: COLO 205 colon
[17] = test system: KM12 colon
[18] = test system: A498 renal
[19] = test system: NCI-H322M lung
[20] = test system: HL-60(TB) leukemia
[21] = test system: SK-OV-3 ovarian
[22] = test system: HCT-116 colon
[23] = test system: PC-3 prostate
[24] = test system: NCI-H226 lung
[25] = test system: RPMI-8226 leukemia
[26] = test system: NCI-H460 NSCLC
[27] = test system: SK-MEL-5 melanoma
[28] = test system: MCF7 breast
[29] = test system: TK-10 renal
[30] = test system: OVCAR-3 ovarian
[31] = test system: SK-MEL-28 melanoma
[32] = test system: HCT-15 colon
[33] = test system: MDA-MB-468 breast
[34] = test system: SF-295 CNS
[35] = test system: U251 glioblastoma
[36] = test system: T-47D breast
[37] = test system: LOX IMVI melanoma
[38] = test system: SF-539 CNS
[39] = test system: SN12C renal
[40] = test system: SNB-75 CNS
[41] = test system: ACHN renal
[42] = test system: SF-268 CNS
[43] = test system: HOP-92 NSCLC
[44] = test system: OVCAR-5 ovarian
[45] = test system: IGROV1 ovarian
[46] = test system: UACC-257 melanoma
[47] = test system: A549 NSCLC
[48] = test system: M14 melanoma
[49] = test system: HT29 colon
[50] = test system: MOLT-4 leukemia
[51] = test system: MDA-MB-435 melanoma
[52] = test system: NCI-H522 lung
[53] = test system: HS 578T breast
[54] = test system: CAKI-1 renal

With COc1cc2c(cc1-c1c(C)noc1C)ncc1[nH]c(=O)n([C@H](C)c3ccccn3)c12 the GI50 [1] was 0.303 µM, the TGI [1] was 2 µM and the GI50 [2] was 0.504 µM. For the same compound, the TGI [2] was 11.4 µM, the GI50 [3] was 0.922 µM and the TGI [3] was 63.5 µM. For the same compound, the GI50 [4] was 0.297 µM, the TGI [4] was 14.3 µM and the GI50 [5] was 1.91 µM. The TGI [5] was 32.5 µM, the GI50 [6] was 0.521 µM and the TGI [6] was 9.6 µM. The GI50 [7] was 1.25 µM, the TGI [7] was over 100 µM and the GI50 [8] was 27.7 µM. For the same compound, the TGI [8] was over 100 µM, the GI50 [9] was 0.91 µM and the TGI [9] was over 100 µM. The GI50 [10] was 0.199 µM, the TGI [10] was 0.615 µM and the GI50 [11] was 0.308 µM. It also gave a TGI [11] of over 100 µM, a GI50 [12] of 0.335 µM and a TGI [12] of 2.54 µM. The GI50 [13] was 8.71 µM, the TGI [13] was over 100 µM and the GI50 [14] was 8.96 µM. It also gave a TGI [14] of over 100 µM, a GI50 [15] of 3.05 µM and a TGI [15] of 16.8 µM. The GI50 [16] was 0.498 µM, the TGI [16] was 6.27 µM and the GI50 [17] was 1.71 µM. For the same compound, the TGI [17] was over 100 µM, the GI50 [18] was 0.693 µM and the TGI [18] was over 100 µM. It also gave a GI50 [19] of 0.509 µM, a TGI [19] of 9.51 µM and a GI50 [20] of 0.144 µM. It also gave a TGI [20] of 0.277 µM, a GI50 [21] of 0.577 µM and a TGI [21] of 45.5 µM. The GI50 [22] was 1.9 µM, the TGI [22] was over 100 µM and the GI50 [23] was 0.743 µM. For the same compound, the TGI [23] was over 100 µM, the GI50 [24] was 1.31 µM and the TGI [24] was 24.7 µM. It also gave a GI50 [25] of 0.212 µM, a TGI [25] of 0.819 µM and a GI50 [26] of 2.92 µM. The TGI [26] was over 100 µM, the GI50 [27] was 0.438 µM and the TGI [27] was 8.69 µM. The GI50 [28] was 0.269 µM, the TGI [28] was over 100 µM and the GI50 [29] was 0.575 µM. It also gave a TGI [29] of 12.4 µM, a GI50 [30] of 0.421 µM and a TGI [30] of 7.13 µM. The GI50 [31] was 2.64 µM, the TGI [31] was over 100 µM and the GI50 [32] was 0.488 µM. For the same compound, the TGI [32] was 2.8 µM, the GI50 [33] was 0.872 µM and the TGI [33] was over 100 µM. The GI50 [34] was 5.3 µM, the TGI [34] was over 100 µM and the GI50 [35] was 3.17 µM. For the same compound, the TGI [35] was over 100 µM, the GI50 [36] was 3.1 µM and the TGI [36] was over 100 µM. It also gave a GI50 [37] of 0.245 µM, a TGI [37] of 0.574 µM and a GI50 [38] of 0.829 µM. The TGI [38] was over 100 µM, the GI50 [39] was 0.364 µM and the TGI [39] was over 100 µM. For the same compound, the GI50 [40] was 18.8 µM, the TGI [40] was over 100 µM and the GI50 [41] was 1.61 µM. For the same compound, the TGI [41] was over 100 µM, the GI50 [42] was 8.13 µM and the TGI [42] was over 100 µM. For the same compound, the GI50 [43] was 11.4 µM, the TGI [43] was over 100 µM and the GI50 [44] was 0.392 µM. For the same compound, the TGI [44] was 10.9 µM, the GI50 [45] was 0.584 µM and the TGI [45] was 9.78 µM. The GI50 [46] was 0.503 µM, the TGI [46] was 11.6 µM and the GI50 [47] was 2.39 µM. The TGI [47] was over 100 µM, the GI50 [48] was 1.03 µM and the TGI [48] was 33.2 µM. For the same compound, the GI50 [49] was 0.412 µM, the TGI [49] was over 100 µM and the GI50 [50] was 0.915 µM. It also gave a TGI [50] of 7.74 µM, a GI50 [51] of 2.45 µM and a TGI [51] of 51.2 µM. The GI50 [52] was 0.321 µM, the TGI [52] was 2.41 µM and the GI50 [53] was 0.342 µM. It also gave a TGI [53] of 21.5 µM, a GI50 [54] of 0.479 µM and a TGI [54] of over 100 µM.
COc1ccc(-c2cc3nccn3c(Nc3ncccc3C(N)=O)n2)cc1OC showed a GI50 [1] of 46.6 µM, a TGI [1] of over 100 µM and a GI50 [2] of 2.26 µM. The TGI [2] was over 100 µM, the GI50 [3] was 51.6 µM and the TGI [3] was over 100 µM. It also gave a GI50 [4] of 0.129 µM, a TGI [4] of 0.301 µM and a GI50 [5] of over 100 µM. The TGI [5] was over 100 µM, the GI50 [6] was 2.14 µM and the TGI [6] was over 100 µM. It also gave a GI50 [7] of 0.858 µM, a TGI [7] of over 100 µM and a GI50 [8] of 17.9 µM. The TGI [8] was over 100 µM, the GI50 [9] was over 100 µM and the TGI [9] was over 100 µM. It also gave a GI50 [10] of over 100 µM, a TGI [10] of over 100 µM and a GI50 [11] of 0.675 µM. For the same compound, the TGI [11] was over 100 µM, the GI50 [12] was 0.784 µM and the TGI [12] was 71.4 µM. It also gave a GI50 [13] of 2.36 µM, a TGI [13] of 91 µM and a GI50 [14] of 0.914 µM. The TGI [14] was 12.3 µM, the GI50 [15] was 1.87 µM and the TGI [15] was over 100 µM. The GI50 [16] was 0.522 µM, the TGI [16] was over 100 µM and the GI50 [17] was 1.73 µM. For the same compound, the TGI [17] was over 100 µM, the GI50 [18] was 0.518 µM and the TGI [18] was over 100 µM. For the same compound, the GI50 [19] was 2.06 µM, the TGI [19] was over 100 µM and the GI50 [20] was 1.15 µM. The TGI [20] was 3.05 µM, the GI50 [21] was 0.571 µM and the TGI [21] was over 100 µM. The GI50 [22] was 0.454 µM, the TGI [22] was 10.9 µM and the GI50 [23] was 2.17 µM. The TGI [23] was over 100 µM, the GI50 [24] was 6.52 µM and the TGI [24] was over 100 µM. It also gave a GI50 [25] of 1.62 µM, a TGI [25] of over 100 µM and a GI50 [26] of 0.555 µM. It also gave a TGI [26] of 12.4 µM, a GI50 [27] of 0.567 µM and a TGI [27] of over 100 µM. The GI50 [28] was 1.11 µM, the TGI [28] was over 100 µM and the GI50 [29] was 0.692 µM. The TGI [29] was over 100 µM, the GI50 [30] was 2.36 µM and the TGI [30] was over 100 µM. It also gave a GI50 [31] of over 100 µM, a TGI [31] of over 100 µM and a GI50 [32] of 0.677 µM. For the same compound, the TGI [32] was over 100 µM, the GI50 [34] was over 100 µM and the TGI [34] was over 100 µM. The GI50 [35] was 7.43 µM, the TGI [35] was over 100 µM and the GI50 [36] was over 100 µM. The TGI [36] was over 100 µM, the GI50 [37] was 0.461 µM and the TGI [37] was 4.31 µM. For the same compound, the GI50 [38] was 4.82 µM, the TGI [38] was over 100 µM and the GI50 [39] was 0.819 µM. It also gave a TGI [39] of over 100 µM, a GI50 [40] of over 100 µM and a TGI [40] of over 100 µM. It also gave a GI50 [41] of 0.45 µM, a TGI [41] of 3.75 µM and a GI50 [42] of 2.02 µM. The TGI [42] was over 100 µM, the GI50 [43] was over 100 µM and the TGI [43] was over 100 µM. For the same compound, the GI50 [44] was 4.46 µM, the TGI [44] was over 100 µM and the GI50 [45] was 0.666 µM. For the same compound, the TGI [45] was over 100 µM, the GI50 [46] was 91.7 µM and the TGI [46] was over 100 µM. For the same compound, the GI50 [47] was 17.9 µM, the TGI [47] was over 100 µM and the GI50 [48] was over 100 µM. It also gave a TGI [48] of over 100 µM, a GI50 [49] of 6.96 µM and a TGI [49] of over 100 µM. It also gave a GI50 [50] of 1.48 µM, a TGI [50] of 5.77 µM and a GI50 [51] of over 100 µM. It also gave a TGI [51] of over 100 µM, a GI50 [52] of 0.587 µM and a TGI [52] of over 100 µM. The GI50 [53] was 1.31 µM, the TGI [53] was over 100 µM and the GI50 [54] was 0.392 µM. The TGI [54] was over 100 µM.
